Tested on: T1, trypsin
T1 construct: gene PRSS1
Experiment: casein digestion, absorbance at […] nm
Assay type: biochemical
Conditions: casein 0.8%, 20 mM Tris-HCl pH 7.4, 37 °C, 20 min

## CC(=O)Oc1ccccc1C(=O)O [acetylsalicylic acid]
  Acetylsalicylic Acid: 5.11 ± 0.97 µg/mL

From article PMC7926928, “Preliminary Investigation of the Antioxidant, Anti-Diabetic, and Anti-Inflammatory Activity of Enteromorpha intestinalis Extracts” (Molecules, 2021)
